# Test system: HIV-1 NL4-3 NanoLuc-sec infection of MT4 cells
# Assay: MOA comparison: antiviral activity in the presence or absence of enzastaurin
# Assay type: cell-based
# Details: for HIV-1 inhibitory activity in the presence of enzastaurin: enzastaurin 1 μM, 1 at 0.6 nM, 13e at 2 nM
Compound,HIV-1 inhibitory activity in the presence of enzastaurin,antiviral potency relative to 1 (in this assay),"antagonism of GM's HIV-1 inhibitory activity (enzastaurin at 1 μM, GM at 0.6 nM)"
"C=C(C)[C@]12C[C@@H](COC(=O)c3ccccc3)[C@@]34OC5(O[C@@H]1[C@@H]3[C@@H]1O[C@]1(CO)[C@@H](O)[C@@]1(O)[C@H]4[C@H]([C@H](C)[C@@H]1OC(=O)c1ccccc1)[C@H](C)CCCCCC[C@H]5O)O2 [Compound 1, gnidimacrin]",largely abrogated,–,–
"C=C(C)[C@]12C[C@@H](COC(=O)c3ccccc3)[C@@]34OC5(O[C@@H]1[C@@H]3[C@@H]1O[C@]1(CO)[C@@H](O)[C@@]1(O)[C@H]4[C@H]([C@H](C)[C@@H]1OC(=O)c1ccncc1)[C@H](C)CCCCCC[C@H]5O)O2 [Compound 13e, 3-O-(4-Pyridinylcarbonyl) Stelleramacrin]",able to abrogate,approximately threefold weaker,–
"Cn1cc(C2=C(c3cn(C4CCN(Cc5ccccn5)CC4)c4ccccc34)C(=O)NC2=O)c2ccccc21 [enzastaurin, reference compound]",–,–,effectively antagonized
